Data published in patent publication US20240050392A1, “COMPOSITIONS AND METHODS FOR IMPROVED TREATMENT OF PLATINUM-BASED CHEMOTHERAPEUTIC RESISTANT TUMORS” (THE REGENTS OF THE UNIVERSITY OF THE COLORADO, A BODY …, priority 2021, published 2024).

Tested on: bladder tumor-derived organoids
Assay: Tumor-derived organoid drug screening (alamarBlue viability, reseeding)
Format: cell-based, human
Protocol: Three independent organoid models derived from patients that failed between 4 to 6 cycles of neoadjuvant gemcitabine plus cisplatin chemotherapy (FIG. 10A). The organoids mimicked the morphological and genomic characteristics of the tumor from which they were derived (FIG. 10B). These organoids were treated with increasing doses of cisplatin and 20 μM of tosedostat.
Tumor-derived Organoids. Culture of the organoids. Human bladder tissue was obtained from the Erasmus MC Bladder Cancer Center, Rotterdam, the Netherlands. Bladder tumor-derived organoids from biopsies obtained through TURBT or cystectomy. Briefly, bladder tissues were washed with Advanced DMEM/F12 (Gibco) supplemented with 10 mM HEPES (Gibco), 1% GlutaMax (Gibco) and 100 μg/ml primocin (InvivoGen), henceforth Ad+++. Tissue was minced and incubated at 37° C. with the digestion solution (collagenase 2.5 mg/ml in EBSS) and isolated cells were passed through […] strainer (Falcon), washed with Ad+++ and seeded in 50 μl drops of BME (R&D system) containing 10000-15000 cells in 24 well suspension plates (Greiner). Bladder tumor organoids were cultured in a culture medium containing Ad+++ supplemented with 1×B-27 (Gibco), 1.25 mM N-acetylcysteine (Sigma), 10 mM nicotinamide, 20 μM TGFβ receptor inhibitor A83-01, 100 ng/ml recombinant human FGF10 (Peprotech), 25 ng/ml recombinant human FGF7 (Peprotech), 12.5 ng/ml recombinant human FGF2 (Peprotech), 10 μM Y27632 Rho Kinase (ROCK) Inhibitor (Sigma) and conditioned media for recombinant Rspondin (2.5% v/v), and Wnt3A (2.5% v/v). The medium was changed every three days. Organoids were passaged at a 1:3 to 1:6 ratio every 7 days using cell dissociation solution-non enzymatic (Sigma) and plated in fresh BME matrix droplets.
Drug screening. Organoids were collected 7 days after passaging, passed through a […] strainer and 1000 organoids were seeded per well of a 48-well plate in BME matrix droplets. After 24 hours cisplatin (Sigma) resuspended in PBS was added at different concentrations (2, 10, 25, and 50 μM) with or without tosedostat (20 μM) (Tocris) resuspended in DMSO. All wells were adjusted to contain less than 0.7% DMSO. Organoids were cultured for the first 6 days in the presence of drugs followed by drug withdrawal, where organoids were grown in organoid culture media for 10 days. The entire content of the wells in different treatment groups was collected, washed and reseeded after disaggregation in fresh BME, and cultured for 6 days. Cell viability was assayed using alamarBlue (Invitrogen) according to the manufacturer's instructions after 6 days of drug incubation, 10 days of drug withdrawal, and 6 days post reseeding. Viability data was normalized using organoid wells treated with vehicle control.

N.N.[Cl][Pt][Cl] [cisplatin]
organoid growth after reseeding in new growth conditions (2 μM cisplatin alone): able to re-grow
organoid killing (cisplatin alone at 25 μM): all organoids were killed
